Legend:
[1] = molecular target: T1, Human serotonin transporter (SERT) (Homo sapiens, UniProt P31645); experiment: In vitro transporter affinity assay (SPA radioligand binding), SERT; conditions: membranes of transfected HEK293 cells, 3H-citalopram; read-out: Ki hSERT
T1 construct: expressed in transfected cells; host or cells: HEK293 (membrane stocks)
Description: (§1) Human serotonin transporter (SERT), norepinephrine transporter (NET), or dopamine transporter (DAT) are cloned into a pcDNA3 vector and stably transfected into HEK293 cells. […] Fluoxetine (100 μM) is used to determine non-specific binding, and venlafaxine is used as a positive control. NET membranes are used at a concentration of 8 μg/well in assay buffer containing 50 mM Tris, 300 mM NaCl, and 5 mM KCl (pH 7.4). ^3H-Nisoxetine is used as the tracer, 100 μM desipramine serves as a measure of non-specific binding, and nisoxetine is used as the positive control. For DAT binding assays, the assay buffer is the same as for SERT, membranes are used at 20 μg/well, 100 μM nomifensine is used to determine non-specific binding, ^3H-WIN 35428 (Perkin Elmer) serves as the radiotracer, and nomifensine is used as the positive control. In all cases, 0.5 mg/well of wheat-germ agglutinin scintillation proximity assay beads (WGA-SPA, GE Health Sciences) are used to capture the membranes, and plates are incubated for 3 hours at room temperature. Radioactivity is measured and Ki values calculated using a four-parameter logistic curve fitting program (ActivityBase v5.3.1.22).

[2] = molecular target: T2, Human norepinephrine transporter (NET) (Homo sapiens, UniProt P23975); experiment: In vitro transporter affinity assay (SPA radioligand binding), NET; conditions: membranes of transfected HEK293 cells, 3H-nisoxetine; read-out: Ki hNET
T2 construct: expressed in transfected cells; host or cells: HEK293 (membrane stocks)
Description: as §1

[3] = molecular target: T3, Human dopamine transporter (DAT) (Homo sapiens, UniProt Q01959); experiment: In vitro transporter affinity assay (SPA radioligand binding), DAT; conditions: membranes of transfected HEK293 cells, 3H-WIN 35428; read-out: Ki hDAT
T3 construct: expressed in transfected cells; host or cells: HEK293 (membrane stocks)
Description: as §1

[4] = molecular target: T4, Human serotonin (SERT) transporter (Homo sapiens, UniProt P31645); experiment: In vitro inhibitor activity assay (3H-serotonin uptake); assay type: cell-based; conditions: transfected HEK293 cells, read-out: IC50 hSERT (serotonin reuptake)
T4 construct: expressed in transfected cells; host or cells: HEK293
Description: (§2) Human serotonin (SERT) or norepinephrine (NET) transporters are cloned into a pcDNA3 vector and stably transfected into HEK293 cells. Both assays are modified from methods described by Eshleman et al., J. Pharmacol. Exptl Ther., 289, 877-885 (1999)) and Wall et al., Mol. Pharmacol., 47, 544-550 (1995). Cells are grown on poly-D-lysine coated flasks or 96-well plates in D-MEM/F-12 3:1 (3 part of Dulbecco's Modified Eagle Medium in 1 part of Nutrient Mix F-12 medium) containing 5% fetal bovine serum, 250 μg/mL geneticin, and 20 mM Hepes. Cells are plated at 40,000 cells per well in 200 μL of medium and incubated for 18-24 hours at 37° C. prior to the assay. The assay uptake buffer consists of Krebs-Ringer bicarbonate stock supplemented with 1.26% sodium bicarbonate, 20 mM HEPES, and 100 μM each of pargyline and ascorbic acid. Following a 30 minute pre-incubation with the compound or indatraline (as a positive control), ^3H-serotonin or ^3H-norepinephrine is added for 1 min. and 50 sec. The ^3H-substrate is then removed, and the cells washed 4× with 100 μL of cold uptake buffer using multimek. […] Microscint™ 40 is added to each well and the radioactivity is quantitated for 1 min. per well. Results are analyzed as IC50 values using a four-parameter logistic curve fitting program (ActivityBase v5.3.1.22).

[5] = molecular target: T5, Human norepinephrine (NET) transporter (Homo sapiens, UniProt P23975); experiment: In vitro inhibitor activity assay (3H-norepinephrine uptake); assay type: cell-based; conditions: transfected HEK293 cells, read-out: IC50 hNET (norepinephrine reuptake)
T5 construct: expressed in transfected cells; host or cells: HEK293
Description: as §2

serotonin transporter = molecular target: T6, serotonin transporter (Rattus norvegicus, UniProt P31652); experiment: In vivo transporter occupancy assay; conditions: 1 hr. post dosing
T6 construct: from tissue; host or cells: rat frontal cortex, in vivo
Description: Male Sprague-Dawley rats weighing 240-280 gm in groups of three are used to determine serotonin transporter occupancy. Animals are fasted at least 12 hr. before the start of each experiment. Animals are orally administered vehicle or 0.10, 0.33, 1.00, 3.33 or 10.00 mg/kg doses of test compound in 4% Glucose in 25 mM Phosphate buffer, (pH=3.0) containing 0.1, 0.33, 1, 3.33, or 10% CAPTISOL™ (concentration of CAPTISOL™ (%)=dose of test compound (mg/kg)). […] After an additional 40 min., rats are sacrificed via cervical dislocation, and a portion of the frontal cortex is removed and placed on dry ice. An additional control group of three rats is dosed with paroxetine maleate at 12 mg/kg, i.v., followed by N,N-dimethyl-2-(2-amino-4-cyanophenylthio)-benzylamine (10 μg/kg) 1 hr. later.
Tissues are allowed to thaw and then four volumes (w/v) of acetonitrile containing 0.1% formic acid is added. Samples are homogenized using an ultrasonic dismembrator probe and centrifuged for 16 min. at 14,000×g. One volume of the supernatant is added to 3 volumes of water in an autosampler vial and vortexed. Separation is achieved with a Zorbax C18 HPLC column and a mobile phase gradient of from 20% to 90% acetonitrile/water, each with 0.1% formic acid. The total HPLC run time is 3.5 min with an additional 2.0 min re-equilibration time. An API4000 triple quadrupole mass spectrometer (Applied Biosystems, Foster City, Calif., USA) operating in MRM mode is used for detection. The ion transition monitored is 284.1/239.1 m/z for N,N-dimethyl-2-(2-amino-4-cyanophenylthio)-benzylamine.
The level of N,N-dimethyl-2-(2-amino-4-cyanophenylthio)-benzylamine (tracer) in the cortex of vehicle-pretreated animals represents the sum of nonspecific and specific binding and is assigned the value of 0% occupancy (all receptors available to the tracer). The lower level of tracer in animals pretreated with the very high intravenous dose of paroxetine maleate, the positive control group, represents the nonspecific binding and is assigned the value of 100% occupancy (no receptors available to the tracer). Levels of tracer in the cortex following oral administration of test compound are interpolated linearly between these two extremes in order to determine the percent serotonin transporter occupancy. Data are expressed as means±SEM (n=3/group) calculated using Prism version 3.0 (GraphPad Software Inc., San Diego, Calif., USA). The ED80 values are obtained by fitting the data to a sigmoidal curve using nonlinear regression.

[6] = molecular target: T7, norepinephrine transporter (Rattus norvegicus, UniProt Q63380); experiment: Alpha MMT: monoamine depletion inhibition assay; assay type: in vivo; conditions: rat cortex
T7 construct: from tissue; host or cells: rat cortex, in vivo
Excerpt: DL-Para-chloroamphetamine (PCA) is transported into serotonergic neurons via the neuronal transporter and produces a long-lasting depletion of rat brain serotonin (5-HT) concentrations. Alpha-methyl-m-tyrosine (α-MMT) is a noradrenergic depleting agent that is β-hydroxylated to metaraminol in vivo and actively transported into norepinephrine (NE) neurons via the neuronal transporter producing a decrease in NE levels in rat brain. The depletion of rat brain 5-HT levels by PCA and rat cortical NE concentrations by α-MMT is blocked by agents with 5-HT and NE reuptake inhibitor activity. Compounds of the present invention may be assayed for their activity to prevent the depletion of rat brain 5-HT concentrations by PCA and the depletion of rat cortical NE concentrations by a-MMT in fed and fasted rats in vivo using the following methods.
Male Sprague Dawley rats weighing 160-180 grams are fasted overnight or allowed food ad libidum. […] All compounds are administered at 1 mL/kg. Animals are sacrificed 2 hr. after PCA or α-MMT administration. Tissues are dissected, frozen on dry ice and stored at −70° prior to analysis. […] The data are collected using an EZChrom™ chromatography data system (Scientific Software, San Ramon, Calif.) which calculates peak heights and sample concentrations. Analysis of variance, followed by Tukey's Honestly Significant Difference test post hoc, identifies significant differences between treatment groups (P≦0.05). Doses that antagonized the PCA- or α-MMT-induced depletion of monoamines by 50 percent, (ED50's) are calculated using a best-fit linear regression analysis.

Formalin induced pain = experiment: Manual formalin test; assay type: in vivo; conditions: rat
Description: The manual formalin test is performed in custom-made Plexiglas boxes approx. 25 cm×25 cm×20 cm in size. A mirror placed at the back of the cage allows the unhindered observation of the formalin injected paw. Rats (Charles River (CRL) Sprague Dawley (SD)) are placed individually in the cubicles at least 30 min. prior to the experiment. All testing is conducted between 08:00 and 14:00 h and the testing room temperature is maintained at 21-23° C. Peripherally administered test compounds are dosed at varying times before the formalin challenge. Formalin (50 μL of a 5% solution in saline) is injected subcutaneously into the dorsal lateral surface of the right hind paw with a 27 gauge needle. Observation starts immediately after the formalin injection. Formalin induced pain is quantified by recording the number of seconds each licking event lasts in 5 min. intervals. The pain scoring is measured for 50 min. after the formalin injection. Two phases of pain behavior are observed as previously described (Wheeler-Aceto, H., Porreca, F. and Cowan, A., The rat paw formalin test: comparison of noxious agents, Pain 40 (1990) 229-238.). The early phase starts immediately after the formalin injection and lasts approximately 5 min., followed by the late phase that starts between minutes 10-15 with a maximum response typically observed around 25-35 min. after the formalin injection. After the 50 min. observation period, animals are sacrificed with CO2.
Of the different scoring parameters reported for the formalin test, the total time spent licking and biting the injected paw is considered to be most relevant. (Abbott et al., The formalin test: scoring properties of the first and second phases of the pain response in rats, Pain 60 (1995) 91-102; Coderre et al., The formalin test: a validation of the weighted-scores method of the behavioral pain rating, Pain 54 (1993) 43-50).) The early phase score is the sum of time spent licking (seconds) from time 0 to 5 min. The late phase score is obtained by adding the total number of seconds spent licking from minute 16 to min. 40 of the observation period. Data are presented as means with standard errors of means (±SEM). Data is evaluated by one-way analysis of variance (ANOVA) and the appropriate contrasts analyzed by Dunnett “t′ test for two sided comparisons. Differences are considered to be significant if the P-value is less than 0.05. (Abbott, supra.; Coderre, supra.; and Wheeler-Aceto, supra.)

T6 sequence (P31652 whole entry): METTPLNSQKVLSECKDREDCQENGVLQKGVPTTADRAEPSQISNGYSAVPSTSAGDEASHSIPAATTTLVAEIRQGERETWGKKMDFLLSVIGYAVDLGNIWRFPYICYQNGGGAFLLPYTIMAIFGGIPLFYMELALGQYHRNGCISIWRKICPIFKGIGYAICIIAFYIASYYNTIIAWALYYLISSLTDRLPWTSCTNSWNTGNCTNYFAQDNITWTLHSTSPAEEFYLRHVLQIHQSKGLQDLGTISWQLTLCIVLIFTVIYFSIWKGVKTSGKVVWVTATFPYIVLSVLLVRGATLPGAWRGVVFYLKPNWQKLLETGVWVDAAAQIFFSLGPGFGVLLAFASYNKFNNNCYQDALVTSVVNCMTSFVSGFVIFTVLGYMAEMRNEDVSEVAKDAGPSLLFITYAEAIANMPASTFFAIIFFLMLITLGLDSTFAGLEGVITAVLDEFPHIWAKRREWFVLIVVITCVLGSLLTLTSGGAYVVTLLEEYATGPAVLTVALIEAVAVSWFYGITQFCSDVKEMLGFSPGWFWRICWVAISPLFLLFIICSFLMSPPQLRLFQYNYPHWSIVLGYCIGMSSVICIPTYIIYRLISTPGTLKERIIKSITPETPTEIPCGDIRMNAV
T7 sequence (Q63380 1-617): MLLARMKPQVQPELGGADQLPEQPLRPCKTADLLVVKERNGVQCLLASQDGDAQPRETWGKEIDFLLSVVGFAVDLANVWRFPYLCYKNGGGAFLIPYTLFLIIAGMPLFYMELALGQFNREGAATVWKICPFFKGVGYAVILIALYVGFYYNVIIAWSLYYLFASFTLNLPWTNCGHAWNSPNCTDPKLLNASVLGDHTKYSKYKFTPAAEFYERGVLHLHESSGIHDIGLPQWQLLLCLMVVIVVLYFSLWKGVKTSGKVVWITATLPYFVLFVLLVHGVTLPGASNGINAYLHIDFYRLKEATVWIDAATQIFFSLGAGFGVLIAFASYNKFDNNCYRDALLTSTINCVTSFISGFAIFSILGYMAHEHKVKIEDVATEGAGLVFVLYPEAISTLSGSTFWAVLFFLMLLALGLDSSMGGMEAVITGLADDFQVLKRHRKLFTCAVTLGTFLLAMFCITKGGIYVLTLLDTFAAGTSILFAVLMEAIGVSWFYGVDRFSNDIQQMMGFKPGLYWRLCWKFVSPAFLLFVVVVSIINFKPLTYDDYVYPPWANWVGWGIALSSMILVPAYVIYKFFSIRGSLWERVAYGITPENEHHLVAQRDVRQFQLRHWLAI
T4 sequence (P31645 whole entry): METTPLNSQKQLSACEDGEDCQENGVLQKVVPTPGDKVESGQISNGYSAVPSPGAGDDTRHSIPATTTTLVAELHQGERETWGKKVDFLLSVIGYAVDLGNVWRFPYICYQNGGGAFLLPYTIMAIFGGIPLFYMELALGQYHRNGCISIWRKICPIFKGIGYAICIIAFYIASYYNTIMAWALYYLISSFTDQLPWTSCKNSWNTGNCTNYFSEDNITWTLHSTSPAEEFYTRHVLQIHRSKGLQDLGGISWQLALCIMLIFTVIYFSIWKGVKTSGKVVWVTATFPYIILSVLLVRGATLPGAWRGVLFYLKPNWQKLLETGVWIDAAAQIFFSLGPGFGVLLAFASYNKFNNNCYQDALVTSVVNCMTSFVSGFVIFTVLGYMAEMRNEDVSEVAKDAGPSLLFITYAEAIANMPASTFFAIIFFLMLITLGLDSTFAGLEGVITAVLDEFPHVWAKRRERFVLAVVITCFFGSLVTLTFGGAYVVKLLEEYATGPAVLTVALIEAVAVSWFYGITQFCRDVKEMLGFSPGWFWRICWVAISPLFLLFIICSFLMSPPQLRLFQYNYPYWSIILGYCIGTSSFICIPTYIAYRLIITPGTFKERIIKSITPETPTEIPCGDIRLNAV
T1 sequence (P31645 whole entry): as above
T5 sequence (P23975 whole entry): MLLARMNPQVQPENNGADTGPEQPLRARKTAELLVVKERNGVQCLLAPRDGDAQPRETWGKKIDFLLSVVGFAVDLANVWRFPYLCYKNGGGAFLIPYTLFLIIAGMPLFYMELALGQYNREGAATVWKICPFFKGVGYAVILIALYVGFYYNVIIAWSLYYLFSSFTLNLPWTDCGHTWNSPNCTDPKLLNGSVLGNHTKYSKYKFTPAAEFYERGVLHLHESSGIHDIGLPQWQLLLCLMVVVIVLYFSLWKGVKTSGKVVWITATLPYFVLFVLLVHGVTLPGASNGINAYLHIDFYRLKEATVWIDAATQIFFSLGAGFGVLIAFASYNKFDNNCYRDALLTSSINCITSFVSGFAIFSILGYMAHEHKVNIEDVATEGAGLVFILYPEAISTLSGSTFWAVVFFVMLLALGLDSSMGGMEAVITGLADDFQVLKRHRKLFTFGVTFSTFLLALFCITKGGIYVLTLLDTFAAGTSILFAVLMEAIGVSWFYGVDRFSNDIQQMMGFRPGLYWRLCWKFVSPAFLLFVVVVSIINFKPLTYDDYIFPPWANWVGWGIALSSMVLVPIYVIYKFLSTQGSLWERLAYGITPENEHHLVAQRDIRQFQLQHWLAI
T2 sequence (P23975 whole entry): as above
T3 sequence (Q01959 whole entry): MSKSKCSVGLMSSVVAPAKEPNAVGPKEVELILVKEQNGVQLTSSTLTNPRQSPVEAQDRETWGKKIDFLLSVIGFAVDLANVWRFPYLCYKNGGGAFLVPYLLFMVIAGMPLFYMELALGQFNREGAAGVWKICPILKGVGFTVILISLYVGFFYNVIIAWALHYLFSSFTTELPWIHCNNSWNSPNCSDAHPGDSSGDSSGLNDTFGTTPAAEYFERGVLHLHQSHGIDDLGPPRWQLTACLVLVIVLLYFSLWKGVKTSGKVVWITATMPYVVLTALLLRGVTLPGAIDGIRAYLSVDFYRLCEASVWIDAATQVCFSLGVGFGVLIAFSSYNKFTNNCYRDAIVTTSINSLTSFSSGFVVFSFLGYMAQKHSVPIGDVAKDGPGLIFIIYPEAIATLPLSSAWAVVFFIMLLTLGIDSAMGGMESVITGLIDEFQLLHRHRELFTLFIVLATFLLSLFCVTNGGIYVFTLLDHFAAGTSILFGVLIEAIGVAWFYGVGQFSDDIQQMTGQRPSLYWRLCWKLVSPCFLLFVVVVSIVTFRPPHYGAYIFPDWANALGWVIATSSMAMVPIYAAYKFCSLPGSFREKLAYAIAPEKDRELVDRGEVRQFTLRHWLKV

SMILES: COc1ccc(O[C@@H](CC(C)C)[C@H]2CCNC2)c(C)n1.O=C(O)C(O)C(O)C(=O)O [EXAMPLE 19, (3S)-3-(1-(6-methoxy-2-methyl-3-pyridyloxy)-3-methyl-butyl)-pyrrolidine, L-tartrate (S-2)]
- Ki [1]: 0.199 ± 0.02 nM
- Ki [2]: 1.08 ± 0.32 nM
- Ki [3]: 461 ± 72 nM
- IC50 [4]: 2.15 ± 0.7 nM
- IC50 [5]: 7.34 ± 1.48 nM
- receptor occupancy at 0.3 mg/kg (serotonin transporter; po, rat frontal cortex, 0.3 mg/kg p.o.): 5.9%
- receptor occupancy at 1 mg/kg (serotonin transporter; po, rat frontal cortex, 1 mg/kg p.o.): 25%
- receptor occupancy at 3 mg/kg (serotonin transporter; po, rat frontal cortex, 3 mg/kg p.o.): 43.3%
- receptor occupancy at 10 mg/kg (serotonin transporter; po, rat frontal cortex, 10 mg/kg p.o.): 94%
- receptor occupancy at 30 mg/kg (serotonin transporter; po, rat frontal cortex, 30 mg/kg p.o.): 106%
- absolute ED80 (serotonin transporter occupancy) (serotonin transporter; rat, p.o.): 7.1 mg/kg
- inhibition at 3 mg/kg ([6]; po, 3 mg/kg p.o., read-out: % Inhibition (α-MMT induced depletion of norepinephrine)): 21%
- inhibition at 10 mg/kg ([6]; po, 10 mg/kg p.o., read-out: % Inhibition (α-MMT induced depletion of norepinephrine)): 79%
- inhibition at 30 mg/kg ([6]; po, 30 mg/kg p.o., read-out: % Inhibition (α-MMT induced depletion of norepinephrine)): 115%
- % Inhibition (α-MMT induced depletion of norepinephrine) ([6]; 0.3 mg/kg p.o.): 7.0%
- % Inhibition (α-MMT induced depletion of norepinephrine) ([6]; 1 mg/kg p.o.): 5.6%
- ED50 (Formalin induced pain; po, p.o., read-out: ED50 (reduction of pain behavior)): 13.4 mg/kg
- % reduction in total time licking (Formalin induced pain; 1 mg/kg p.o.): 4.5%
- % reduction in total time licking (Formalin induced pain; 3 mg/kg p.o.): 14.4%
- % reduction in total time licking (Formalin induced pain; 10 mg/kg p.o.): 38.0%
- % reduction in total time licking (Formalin induced pain; 30 mg/kg p.o.): 78.4%

— US8173821B2, “Serotonin and norepinephrine reuptake inhibitor” (Eli Lilly and Company, priority 2009, dated 2012)
